{"source": "paper PMC7116876", "about": "“Mechanistic Insights into Regulation of the ALC1 Remodeler by the Nucleosome Acidic Patch” (Cell reports, 2020)", "key": {"[1]": {"target": "T1, WT/WT nucleosomes (acidic patch) (Xenopus laevis, UniProt P02281+P06897+P62799)", "T1 construct": "made in house; host or cells: E. coli BL21 (DE3) pLysS", "experiment": "Competition fluorescence anisotropy with LANA-TAMRA pre-bound to WT/WT nucleosomes", "assay_type": "binding, Xenopus laevis histones", "details": "LANA-TAMRA 10 nM, WT/WT nucleosomes 100 nM, varying unlabeled ALC1^RLS peptide, 30°C; n = 3 independent experiments", "experimental": "For binding studies, we used nucleosomes without linker DNA (WT/WT or APM/APM) as well as the following synthetic peptides (as detailed above): LANA peptide-TAMRA, ALC1^RLS peptide-TAMRA, and ALC1^RLS peptide. Fluorescence anisotropy measurements were carried out at 30°C using a CLARIOstar microplate reader (BMG Labtech). Binding curves were recorded in black low-volume 384-well assay plates (Corning). Individual wells contained 10 nM peptide and the indicated concentration of nucleosomes in 15 mM HEPES pH 7.5,1 mM EDTA, 5% glycerol, and 1 mM DTT. Dissociation constants were determined by fitting the fluorescence anisotropy data to the solution of a quadratic equation derived from the binding isotherm, which took into account depletion of peptide: r=αA+KD+B−A+KD+B^2−4AB , where r is the fluorescence anisotropy, A represents the total concentration of peptide, a is a scaling factor, KD is the dissociation constant, and B is the total concentration of titrated ligand. […]\nFor fluorescence anisotropy binding experiments, the reported values represent the mean ± SEM from 3 independent experiments. […] For ensemble nucleosome remodeling time courses, each experimental condition was recorded in 3 independent experiments, and representative remodeling time courses are shown. […]"}, "[2]": {"test_system": "APM/APM nucleosomes (H2A E61A, E64A, D90A, E92A)", "experiment": "Fluorescence anisotropy binding assay, APM/APM nucleosomes", "design": "species or system Xenopus laevis histones", "details": "10 nM TAMRA-labeled peptide, 15 mM HEPES pH 7.5, 30°C, one representative curve of two independent experiments", "description": "(§1) The DNA constructs used in the nucleosome assembly for single-molecule and ensemble remodeling studies comprised the Widom 601 nucleosome positioning sequence ([Lowary and Widom, 1998]) as well as either 3 bp or 12 bp of linker DNA on one side and 78 bp on the other side (for the single-molecule remodeling construct) or 63 bp of linker DNA on one side and no linker DNA on the other side (for the ensemble remodeling construct). All constructs were 5’-labeled with Cy5 on the short linker end. The constructs for single-molecule experiments additionally featured a biotin on the long linker end. […] The DNA constructs for the assembly of nucleosomes used in fluorescence anisotropy experiments and ATPase assays comprised the Widom 601 positioning sequence without additional linker DNA (for the fluorescence anisotropy construct) or 63 bp of linker DNA on one side and no linker DNA on the other side (for the ATPase assay construct). […]\nFor binding studies, we used nucleosomes without linker DNA (WT/WT or APM/APM) as well as the following synthetic peptides (as detailed above): LANA peptide-TAMRA, ALC1^RLS peptide-TAMRA, and ALC1^RLS peptide. Fluorescence anisotropy measurements were carried out at 30°C using a CLARIOstar microplate reader (BMG Labtech). Binding curves were recorded in black low-volume 384-well assay plates (Corning). […]"}, "[3]": {"test_system": "ALC1-catalyzed remodeling of WT/WT nucleosomes", "experiment": "Ensemble FRET nucleosome remodeling, WT/WT nucleosomes", "assay_type": "biochemical, Homo sapiens ALC1; Xenopus laevis histones", "details": "WT/WT nucleosomes 10 nM preincubated with 80 μM LANA peptide 5 min room temperature; 80 nM ALC1^fl R860W (Fig 1C) or 80 nM ALC1^fl activated with PARP1/NAD+ (Fig S1C)", "description": "cDNAs for ALC1 and PARP1 were of Homo sapiens origin. Histone proteins (recombinantly expressed in E. coli) were of Xenopus laevis origin. Cell lines as well as growth conditions are described in the Method Details.\nOligonucleotides used in this study were ordered from IDT (see Table S3). The ALC1^fl (16-879) construct contains the human ALC1 sequence and a 6xHis-tag, as previously published ([Lehmann et al., 2017]). All point mutations were generated by PCR-based site-directed mutagenesis. The plasmid for human PARP1 (1-1014) with an N-terminal 6xHis-tag was a kind gift from John M. Pascal ([Langelier et al., 2017]).\nas §1, with “construct).” for “construct). All constructs were 5’-labeled with Cy5 on the short linker end. The constructs for single-molecule experiments additionally featured a biotin on the long linker end.”"}}}
{"compound": "EKASQEGRSLRNKGSVLIPGL [ALC1^RLS peptide, N-terminal regulatory linker segment (residues 604–624) of ALC1, unlabeled]", "values": [{"measurement": "effect on fluorescence anisotropy of pre-formed LANA-TAMRA peptide-nucleosome complex", "setting": "[1]", "value": "caused a decrease in its fluorescence anisotropy in a dose-dependent manner"}]}
{"compound": "CC[C@H](C)[C@H](NC(=O)[C@H](CC(C)C)NC(=O)[C@@H](NC(=O)[C@H](CO)NC(=O)CNC(=O)[C@H](CCCCN)NC(=O)[C@H](CC(N)=O)NC(=O)[C@H](CCCNC(=N)N)NC(=O)[C@H](CC(C)C)NC(=O)[C@H](CO)NC(=O)[C@H](CCCNC(=N)N)NC(=O)CNC(=O)[C@H](CCC(=O)O)NC(=O)[C@H](CCC(N)=O)NC(=O)[C@H](CO)NC(=O)[C@H](C)NC(=O)[C@H](CCCCN)NC(=O)[C@@H](N)CCC(=O)O)C(C)C)C(=O)N1CCC[C@H]1C(=O)NCC(=O)N[C@@H](CC(C)C)C(=O)N[C@@H](CCCCNC(=O)c1ccc2c(c1)C(=O)OC21c2ccc(N(C)C)cc2Oc2cc(N(C)C)ccc21)C(=O)O", "note": "[ALC1^RLS-TAMRA]", "values": [{"measurement": "affinity for nucleosomes with AP mutations on both H2A/H2B dimers", "setting": "[2]", "value": "substantially reduced affinity"}]}
{"compound": "MAPPGMRLRSGRSTGAPLTRGS [LANA peptide, peptide derived from the latency-associated nuclear antigen (LANA) of Kaposi's sarcoma-associated herpesvirus, reference compound]", "values": [{"measurement": "effect on ALC1-catalyzed remodeling", "setting": "[3]", "value": "completely abrogated ALC1-catalyzed remodeling"}]}
